Converted amounts (≈) assume the structure as drawn. Read-outs that look alike come from different tables or passages of the source.
Experiments:
[1] = Pharmacokinetics of the vaginal system in 39 women over up to 13 product-use cycles; format: in vivo, human; parameters: AUC(0-t) / AUC0-21day / AUC0-1day: concentration or dose not given beside the values; settings: vaginal administration; for Cavg / AUC(0-t) / Cmax / AUC0-1day / AUC0-21day: mean (SD)
Procedure: The pharmacokinetics (PK) of the vaginal system described herein were determined in 39 women who used the system for up to 13 product-use cycles. […] Over subsequent product-use cycles, the peak serum concentrations of SA and EE declined. Serum concentration-time profiles of SA and EE for product-pse cycles 1, 3, and 13 of system use are provided in FIG. 1 and FIG. 2 with PK parameters summarized in Table 3 and Table 4.

[2] = Drug-drug interaction study with vaginal miconazole formulations; format: in vivo, human; settings: for overall increase in exposure: concurrent 1 day or 3-day oil-based miconazole suppository; for change in exposure from the vaginal system: concurrent water-based vaginal miconazole cream
From the text: However, the use of either the 1 day or the 3-day oil-based miconazole suppository was associated with an overall increase in exposure up to 67% for EE and 32% for SA. Considering the potential long-term effect on vaginal system performance, concurrent use of oil-based vaginal suppositories should not occur with the system's use. If there is a need to treat a vaginal condition, water-based vaginal cream or oral therapy may be used concurrently with the vaginal system.

clinical = settings: human, in vivo
CYP enzymes = experiment: In vitro CYP inhibition/induction studies; format: in vitro ADME; settings: at the therapeutic dose
mice = experiment: 2-year intravaginal carcinogenicity study in mice; format: in vivo, mouse; settings: intravaginal gel, 2 years
From the text: (§1) Long-term continuous administration of natural and synthetic estrogens in certain animal species increases the frequency of carcinomas of the breast, uterus, cervix, vagina, testis, and liver.

rats [3] = experiment: Return to fertility study in rats with subdermal implants; format: in vivo, rat
Procedure: A return to fertility study was conducted with segesterone acetate in rats, using subdermal implants releasing a dose approximately 25 times the anticipated daily vaginal human dose (based on body surface area).

[4] = target: cytochrome P450 (CYP) 3A4 isoenzyme (Homo sapiens, UniProt P08684)
From the text: These are present as free metabolites and as sulfate and glucuronide conjugates.

QTc interval = experiment: Phase 1 thorough QTc study; format: in vivo, human; settings: single intravenous bolus dose giving 4.5-fold the therapeutic serum concentrations; 44 healthy adult female subjects
Procedure: The effect of SA on the QTc interval was evaluated in a Phase 1 randomized, placebo and positive controlled, double-blind, single-dose, three-period, crossover thorough QTc study in 44 healthy adult female subjects.

human serum proteins = experiment: Serum protein binding; format: in vitro ADME
[5] = system: Chinese hamster ovary cells; experiment: Chromosomal aberration assay; format: cell-based
Salmonella = experiment: Ames/Salmonella reverse mutation assay; format: cell-based
mouse = experiment: In vivo mouse micronucleus test
[6] = target: T1, sex hormone-binding globulin (SHBG) (Homo sapiens, UniProt P04278); experiment: Binding affinity for SHBG
T1 sequence (P04278 30-402): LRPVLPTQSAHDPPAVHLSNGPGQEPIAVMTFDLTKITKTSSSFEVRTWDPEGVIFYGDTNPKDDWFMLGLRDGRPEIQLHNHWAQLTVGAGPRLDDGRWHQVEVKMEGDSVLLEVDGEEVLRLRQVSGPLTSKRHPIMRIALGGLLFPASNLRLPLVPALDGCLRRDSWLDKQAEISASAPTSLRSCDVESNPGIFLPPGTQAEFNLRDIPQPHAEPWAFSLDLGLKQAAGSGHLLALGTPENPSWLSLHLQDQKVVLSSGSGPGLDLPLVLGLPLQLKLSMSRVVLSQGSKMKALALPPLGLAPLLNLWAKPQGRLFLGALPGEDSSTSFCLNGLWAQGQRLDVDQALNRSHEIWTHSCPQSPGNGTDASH

[7] = Residual amount of drug in vaginal systems used in clinical trials over 13 product-use cycles; format: in vivo, human; settings: based on residual drug in used systems
Procedure: Although the vaginal system provides SA and EE in the approximate rates described above, SA and EE can diffuse out of the vaginal system with release rates that vary over time. In certain embodiments, the daily in vitro release rates of SA and EE are higher during each initial 24-48 hours of use in a given product-use cycle, achieving a somewhat lower steady-state with continued use over subsequent days in each product-use cycle. Based on the residual amount of drug in vaginal systems used in clinical trials over 13 product-use cycles, a total of approximately 41.3 mg of SA and approximately 3.4 mg of EE are released over this period.

rats [8] = experiment: 2-year carcinogenicity study in rats with subdermal implants; format: in vivo, rat; settings: subdermal implants releasing 40, 100, and 200 μg per day, 2 years
From the text: as §1

physchem = settings: water
[9] = in vivo
serum albumin = serum albumin (Homo sapiens, UniProt P02768); experiment: Serum albumin binding; format: in vitro ADME; settings: not specifically bound
Solubility = settings: descriptive term
[10] = co-administration of atorvastatin or rosuvastatin and certain CHCs containing EE; cited from earlier work

Sequence of cytochrome P450 (CYP) 3A4 isoenzyme (P08684 whole entry): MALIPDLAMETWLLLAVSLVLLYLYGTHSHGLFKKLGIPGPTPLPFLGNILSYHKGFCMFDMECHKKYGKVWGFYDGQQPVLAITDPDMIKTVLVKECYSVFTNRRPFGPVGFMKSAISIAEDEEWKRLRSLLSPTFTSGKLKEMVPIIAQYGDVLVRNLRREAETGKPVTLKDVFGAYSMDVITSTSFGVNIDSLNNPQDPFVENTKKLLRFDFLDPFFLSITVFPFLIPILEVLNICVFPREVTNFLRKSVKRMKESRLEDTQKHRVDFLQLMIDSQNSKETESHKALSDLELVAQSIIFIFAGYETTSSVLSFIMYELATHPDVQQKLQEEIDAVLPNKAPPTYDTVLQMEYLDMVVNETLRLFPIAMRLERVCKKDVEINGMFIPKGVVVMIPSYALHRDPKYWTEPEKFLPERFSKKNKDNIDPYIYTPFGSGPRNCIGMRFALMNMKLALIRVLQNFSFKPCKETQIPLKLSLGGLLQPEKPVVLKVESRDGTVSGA
Sequence of serum albumin (P02768 25-609): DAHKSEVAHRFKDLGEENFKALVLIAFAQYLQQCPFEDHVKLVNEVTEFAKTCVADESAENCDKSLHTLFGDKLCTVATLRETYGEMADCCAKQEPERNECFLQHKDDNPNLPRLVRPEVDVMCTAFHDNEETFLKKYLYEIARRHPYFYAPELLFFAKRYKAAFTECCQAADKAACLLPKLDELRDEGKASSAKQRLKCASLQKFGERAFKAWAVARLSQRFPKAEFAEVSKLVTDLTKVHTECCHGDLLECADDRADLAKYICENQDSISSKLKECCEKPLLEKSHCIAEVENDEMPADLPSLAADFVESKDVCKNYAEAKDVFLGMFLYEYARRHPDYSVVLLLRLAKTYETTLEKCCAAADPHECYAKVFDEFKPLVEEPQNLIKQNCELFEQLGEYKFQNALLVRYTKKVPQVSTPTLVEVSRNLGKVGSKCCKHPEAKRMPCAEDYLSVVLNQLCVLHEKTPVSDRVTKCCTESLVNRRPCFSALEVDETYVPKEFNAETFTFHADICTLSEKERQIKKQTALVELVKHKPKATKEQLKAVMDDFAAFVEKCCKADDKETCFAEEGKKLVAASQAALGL

C=C1C[C@H]2[C@@H]3CCC4=CC(=O)CC[C@@H]4[C@H]3CC[C@]2(C)[C@@]1(OC(C)=O)C(C)=O [SA, 16-methylene-17α-acetoxy-19-nor-pregn-4-ene-3,20-dione]
Cavg ([1]; Cycle 1, serum): 191 (34) pg/mL
Cavg ([1]; Cycle 3, serum): 131 (29) pg/mL
Cavg ([1]; Cycle 13, serum): 94 (20) pg/mL
AUC(0-t) ([1]; female, human, serum, Cycle 1, serum, read-out: AUC0-1day): 15 ng·h/mL
AUC(0-t) ([1]; female, human, serum, Cycle 1, serum, read-out: AUC0-21day): 96.2 ng·h/mL
Cmax ([1]; female, human, serum, Cycle 1, serum, read-out: Cmax): 1.15 ng/mL
AUC(0-t) ([1]; female, human, serum, Cycle 3, serum, read-out: AUC0-1day): 5 ng·h/mL
AUC(0-t) ([1]; female, human, serum, Cycle 3, serum, read-out: AUC0-21day): 65.9 ng·h/mL
Cmax ([1]; female, human, serum, Cycle 3, serum, read-out: Cmax): 0.363 ng/mL
AUC(0-t) ([1]; female, human, serum, Cycle 13, serum, read-out: AUC0-1day): 3.9 ng·h/mL
AUC(0-t) ([1]; female, human, serum, Cycle 13, serum, read-out: AUC0-21day): 47.2 ng·h/mL
Cmax ([1]; female, human, serum, Cycle 13, serum, read-out: Cmax): 0.294 ng/mL
Tmax ([1]; female, human, serum, product-use cycle 1, 3 and 13, read-out: median Tmax): ~2 h
overall increase in exposure [2]: ≤ 32%
change in exposure from the vaginal system [2]: no change
Vd (clinical): 19.6 L/kg
half-life (clinical): 4.5 h
inhibition or induction of CYP enzymes (CYP enzymes): unlikely to inhibit or induce CYP enzymes
carcinogenic findings (mice; 10 mg/kg/day): did not result in carcinogenic findings
carcinogenic findings (mice; 30 mg/kg/day): increased incidence of adenocarcinoma and lobular hyperplasia in the breast
effects on ovulation or litter parameters after treatment (rats [3]; 7 weeks after cessation of treatment): no adverse effects on ovulation or resulting litter parameters
effect on fertility (rats [3]; subdermal implants, three months of treatment, approximately 25 times the human dose): suppressed fertility
metabolizing enzyme ([4]; human): metabolized by the cytochrome P450 (CYP) 3A4 isoenzyme
effect on the QTc interval (QTc interval): did not prolong the QTc interval to any clinically relevant extent
bound to human serum proteins (human serum proteins): approximately 95%
chromosomal aberration [5]: neither mutagenic nor elastogenic
mutagenicity (Salmonella): neither mutagenic nor elastogenic
micronucleus test result (mouse): neither mutagenic nor elastogenic
binding affinity for sex hormone-binding globulin (SHBG) [6]: negligible
total amount released [7]: approximately 41.3 mg
tumor incidence (rats [8]): no drug-related increase in tumor incidence
solubility (physchem): 18.5 µg/mL (≈ 49.9 µM)

C#C[C@]1(O)CC[C@H]2[C@@H]3CCc4cc(O)ccc4[C@H]3CC[C@@]21C [EE, 19-nor-17α-pregna-1,3,5(10)-trien-20-yne-3,17-diol]
AUC0-1day ([1]; Cycle 1, serum): 2.1 (0.7) ng * hr/mL
AUC0-21day ([1]; Cycle 1, serum): 22.2 (9.8) ng * hr/mL
Cavg ([1]; Cycle 1, serum): 44 (19) pg/mL
Cmax ([1]; Cycle 1, serum): 129 (39) pg/mL
AUC0-1day ([1]; Cycle 3, serum): 0.9 (0.4) ng * hr/mL
AUC0-21day ([1]; Cycle 3, serum): 14.7 (4.7) ng * hr/mL
Cavg ([1]; Cycle 3, serum): 29 (9) pg/mL
Cmax ([1]; Cycle 3, serum): 60 (32) pg/mL
AUC0-1day ([1]; Cycle 13, serum): 0.7 (0.3) ng * hr/mL
AUC0-21day ([1]; Cycle 13, serum): 9.6 (4.1) ng * hr/mL
Cavg ([1]; Cycle 13, serum): 19 (8) pg/mL
Cmax ([1]; Cycle 13, serum): 39 (16) pg/mL
median Tmax ([1]; product-use cycle 1, 3 and 13): about 2 hours
overall increase in exposure [2]: up to 67%
change in exposure from the vaginal system [2]: no change
half-life ([9]; human): 15.1 (7.5) hours
effect on serum concentrations of SHBG [9]: induces an increase
metabolizing enzyme [4]: metabolized by the cytochrome P450 (CYP) 3A4 isoenzyme
bound to serum albumin (serum albumin): 98.5%
solubility in alkaline solution (Solubility): dissolves
total amount released [7]: approximately 3.4 mg
increase in systemic exposure of EE [10]: 20-25%

Reference: patent US10780047B2, “Method of providing birth control” (The Population Council, Inc., priority 2019, dated 2020)
